The source of these data is patent US7674783B2, “Estrogen beta receptor agonists to prevent or reduce the severity of cardiovascular disease” (Dimera Inc., priority 2002, dated 2010).

“Also recorded” adds a separate entry of the source.

One data set deals with rhesus coronary VMC. Put plainly: Ca2+ responses to S+U in rhesus coronary VMC after in vitro treatment (Fluo3 imaging). Type of data set: cell-based, rhesus monkey. The note with it: for Ca2+ response to S+U (protected state vs control): FIG. 6, p<0.05; for Ca2+ signal in response to 15 sec S+U (protection): FIG. 4. The source says: (§1) Hearts or major blood vessels are removed at necropsy from rhesus monkeys sacrificed for other purposes and are immediately immersed in cold ionic solution for mammals (ISM2). ISM2 contains, in mM, 100 NaCl, 16 NaHCO3, 0.5 NaH2PO4, 4.7 KCl, 1.8 CaCl2, 0.4 MgCl2, 0.4 HgSO4, 50 HEPES, and 5.5 dextrose, at pH 7-3 to 7.4. Single cells are enzymatically dissociated in a multi-step process for hearts and coronary arteries are dissected from the anterior and posterior walls of the ventricles and the atrioventricular sulcus. The coronary artery segments are cleaned and then cut into small pieces and rinsed in culture solution for mammals—5th generation (CV5M) for 10 min, followed by potassium glutamate (KG) solution for 10 min, both at room temperature. CV5M contains 4.0 mM L-glutamine, 100 μg/mL ciprofloxacin, 50 mM HEPES (pH 7.3), and 16 mM NaHCO3 dissolved in 90% MEM-Earles's salts and 10% horse serum. KG solution contains, in mM, 140 K-glutamate, 50 HEPES (pH 7.3), 16 NaH2PO4, and 16.5 dextrose.
The coronary artery tissue is then incubated at 37° C. for 60 min in an enzyme solution (430 U/ml collagenase and 2 U/ml elastase with 2 mg/ml bovine serum albumin and 100 μM Ca^2+ in 10 ml of 37° C. KG) with slow stirring. The supernatant is transferred to 25 ml of 4° C. KG holding solution with 10% horse serum (KG-H), and 10 ml of enzyme solution is added to the remaining un-dispersed tissue fragments. This enzymatic treatment is repeated three times.
Enzyme exposure is minimized by cold and added serum. Holding solutions (with 10% serum) containing the dispersed cells are centrifuged at 200 G and 4° C. for 5 min. After the supernatant is removed, the cells are re-suspended in 5 ml of 37° C. CV5M and incubated for 1 hr at 37° C. to permit preferential attachment of fibroblasts. The remaining cells in suspension are counted and concentrated to ˜100,000 living cells/ml by centrifugation, and re-suspended in CV5M at 37° C. VMC are then seeded on clean glass coverslips in culture plates, and maintained undisturbed in 95% air-5% CO2 and 95% humidity at 37° C. for attachment for 12 hr, and then flooded with CV5M. Cells from the suspension are also similarly seeded in growth optimized culture flasks and flooded with CV5M after 12 hr.
Media changes to a 1% medium (CV5MM, identical to CV5M except the concentration of horse serum is 1 %) are used to reduce growth factors after 2-4 days. Strict pH control (7.3-7.4) at each temperature (4° and 37° C.) is maintained by recognition and allowance for the temperature coefficient of the HEPES buffer. Subculture of cells is performed by brief trypsinization, followed by neutralization of trypsin, wash in media, reconstitution of cell suspension in medium with 1% serum, and plating onto culture plates and coverslips. For Ca^2+ imaging experiments, VMC from primary culture are used.
Imaging of intracellular Ca^2+ changes is performed using the fluorescent indicator, Fluo3. Glass coverslips with attached VMC are placed into 300 μL LF 922 laminar flow chambers on the stage of a Zeiss Axiovert 200M microscope, and suffused with ISM2 continuously at 1 mL/min. Live cell fluorescent data acquisition is performed with a photon counting Hamamatsu VIM camera in conjunction with image processing software. Briefly, VMC are loaded with 3 μM Fluo3 for 10 min (stopped flow), then washed (continuously suffused) with ISM2 for 5 min. VMC are exposed for stimulation to a combination of serotonin and U46619, a stabile thromboxane A2 mimetic. This combination, containing serotonin at a concentration of 10 μM and U46619 at a concentration of 100 nM, is referred to as S+U. The VMC are exposed to the S+U combination for 15 sec (stopped flow), and then continuously suffused with ISM2.

In data set [1] the target is T1, estrogen receptor beta (ERβ/D22 interaction) (Homo sapiens, UniProt Q92731).
T1 construct: purchased PanVera/Invitrogen (Invitrogen Corp., Carlsbad, Calif.)
Briefly: ERβ coactivator fluorescence polarization assay. Type of data set: biochemical. The conditions noted are these: 0.038 nM to 1240 nM, triplicate, FIG. 3. Here is the method: An estrogen receptor beta coactivator fluorescence polarization assay was performed by PanVera/Invitrogen discovery screening applying the company's ERβ Coactivator Assay Kit (Invitrogen Corp., Carlsbad, Calif.) using fluorescence polarization with known estrogen receptor ligands (estradiol, ICI182,780, tamoxifen, and OH-tamoxifen) and test compounds (estriol, 3βAdiol, and epiestriol).
Data on the X-axis of the graph of FIG. 3 are represented as log of concentrations from 0.038 nM to 1240 nM tested for each of the perspective ligands. The ligand concentration that produces a half-maximal increase or decrease in polarization equals the ligand EC50 for the ERβ/D22 interaction. The ordinate Y-axis, mP, indicates fluorescence polarization units. Increase in polarization indicates agonist activity. Conversely, a decrease in polarization indicates antagonist activity. The date represent mean +/− standard deviation of the polarization values from the assay performed in triplicate.

For data set [2], the system named is VMC isolated from OVX monkeys. Briefly: Ca2+ response to S+U of cultured VMC isolated from estriol-treated OVX monkeys (Fluo3 imaging). Type of data set: cell-based, rhesus monkey. The note with it: VMC from OVX monkeys treated 4 weeks with daily transdermal estriol, cultured 2 weeks.
Description: as §1, with “dextrose. […]” for “dextrose.”
Enzyme exposure is minimized by cold and added serum. […] The remaining cells in suspension are counted and concentrated to ˜100,000 living cells/ml by centrifugation, and re-suspended in CV5M at 37° C. […]

The test system of data set [3] is coronary arteries of ovariectomized rhesus monkeys. Put plainly: Drug-induced (serotonin + U46619) coronary vasospasm in ovariectomized rhesus monkeys, coronary angiography. It counts as in vivo, Macaca mulatta. Here is the method: Six adult ovariectomized (OVX) female rhesus monkeys (Macaca mulatta) were employed in the studies described below. None of the monkeys had been exposed to high cholesterol diets and all were later verified to lack evidence of cardiovascular disease. […] The monkeys were entered into the study no less than 3 months after ovariectomy.
Angiography after overnight fasting began with preanesthesia with ketamine (10 mg/kg body weight intramuscular), intubation with an endotracheal tube and a light surgical plane of anesthesia with isoflurane (induced at 1.5% to 3% maintained at 0.75% to 1.25%), vaporized with 33% nitrous oxide and 67% oxygen, or with 100% oxygen. Bilateral femoral intraarterial 3F catheters allowed for coronary catheterization and continuous recording of systemic arterial blood pressure and heart rate, which were maintained close to the initial anesthetic value for each monkey. […] A heating pad assisted in maintenance of a body temperature decrease ≦2° C. of preanesthesia body temperature (monitored by rectal thermometer). An electrocardiogram (ECG) recorded on a Gould eight-channel recorder, cutaneous arterial oxygen saturation, respiratory rate and end-tidal CO2 were also monitored.
Entire experiments were recorded on videotape (with episodic fluoroscopic imaging and continuous voice annotation) to permit computerized quantitative coronary angiography. […]
Placement of the 3F catheter was adjusted to provide sufficient filling with radio-opaque contrast medium, limited reflux and isolation of a branch of the coronary arterial tree. […] Fluoroscopic images were recorded on film using an OEC model 9800 digital x-ray system with fluoroscopic C-arm, digitally recorded, and evaluated in subsequent analysis. All procedures including a brief 0.2 ml injection of Hexabrix for optimal quantitative angiography were recorded on videotape for subsequent computer analysis. […]
After 4 weeks of daily treatment with 0.2 mg/kg of the estriol topical cream, the monkeys were studied by coronary catheterization, and reactivity was assessed by injection of serotonin (100 μM) and U46619 (1 μM). […]

A short description of data set [4]: Estriol absorbed, urine level after topical estriol cream. It counts as in vivo, Macaca mulatta. The conditions noted are these: OVX rhesus monkeys, daily 0.3% estriol topical cream, urine collected just prior to catheterization, n = 5.
Description: Repeat slow intracoronary infusions of 1 ml over 30 seconds of the combination of serotonin and U46619 in this 100:1 molar ratio were used, adjusted for body weight (0.2 mg/kg) to produce coronary blood levels of 6.7 μM serotonin and 67 nM U46619. The levels of these two components were based on calculated coronary flow dilution.

T1 sequence (Q92731 whole entry): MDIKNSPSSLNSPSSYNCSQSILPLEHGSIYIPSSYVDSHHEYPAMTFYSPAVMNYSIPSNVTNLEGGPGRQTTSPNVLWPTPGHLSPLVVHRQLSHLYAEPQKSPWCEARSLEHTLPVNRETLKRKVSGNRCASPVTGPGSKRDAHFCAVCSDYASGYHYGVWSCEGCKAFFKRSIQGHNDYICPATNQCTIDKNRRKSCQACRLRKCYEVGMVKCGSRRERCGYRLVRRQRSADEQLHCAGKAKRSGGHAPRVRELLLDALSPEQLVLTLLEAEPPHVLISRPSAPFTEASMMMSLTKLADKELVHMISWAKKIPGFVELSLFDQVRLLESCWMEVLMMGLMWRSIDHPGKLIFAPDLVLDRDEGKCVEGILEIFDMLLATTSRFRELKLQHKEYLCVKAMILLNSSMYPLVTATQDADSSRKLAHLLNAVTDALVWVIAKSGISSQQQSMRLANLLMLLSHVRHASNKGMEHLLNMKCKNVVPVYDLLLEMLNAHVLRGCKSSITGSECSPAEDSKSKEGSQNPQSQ

Turning to `O=c1c(-c2ccc(O)cc2)coc2cc(O)cc(O)c12` [genistein], the “Ca2+ response to S+U (protected state vs control)” value in the data set with rhesus coronary VMC (10 nM) was “produced a protected state”.
On to `C[C@]12CC[C@@H]3c4ccc(O)cc4CC[C@H]3[C@@H]1C[C@@H](O)[C@@H]2O` [estriol], for which the “Estrogen beta receptor agonist activity (increase in polarization)” value in data set [1] is “estrogen beta agonists”. Besides, in the data set with rhesus coronary VMC (72 hours treatment at 1 nM), the “Ca2+ signal in response to 15 sec S+U (protection)” value (shortened to “Ca2+ signal … (protection)”) is given as “protective”. Also, the “Protection relative to the other agonists” value in the data set on rhesus coronary VMC (72 hours, 1 nM estriol vs 300 pM 3βAdiol and 1 nM epiestriol, FIG. 4, p<0.05) is given as “weaker”. Besides, the “Ca2+ response state after S+U challenge” value in data set [2] (15 sec S+U stimulus, FIG. 2) is reported as “protected state”. Moreover, in data set [2] (declining after 2 min to nearly baseline), the “Duration of Ca2+ spike after S+U challenge” value lay within 10 to 30 s. Moreover, the “Vasospasm criteria met (incidence)” value in data set [3] (OVX rhesus monkeys, 4 weeks daily 0.3% estriol topical cream, intracoronary serotonin + U46619, criteria <33% of control diameter for >5 minutes) was 0/6. Further, the “Protection against coronary vasospasm” value in data set [3] (OVX rhesus monkeys, 4 weeks daily estriol topical cream, serotonin + U46619 challenge) is given as “protected against vasospasm; also recorded: protection against coronary vasospasm by administration of estriol was categorical”. Moreover, the “Minimum diameter of coronary arteries following S+U provocative stimulus” value in data set [3] (estriol cream treated OVX monkeys vs untreated OVX, FIG. 1, p<0.05) was “indicative of protection against provoked vasospasm”. In addition, in data set [4], the “E3 absorbed, urine (total)” value is recorded as “***2412 +/− 316 (n = 5) ng/ml”.
For `CC[C@@H]1Cc2cc(O)ccc2C2=C1c1ccc(O)cc1C[C@H]2CC` [RRTHC, RR-tetrahydrochrysene], the “Ca2+ signal in response to 15 sec S+U (exaggerated hyperreactive state)” value in the data set with rhesus coronary VMC (1 to 6 hour treatment with RRTHC, FIG. 7B) is “not”. Further, the “Ca2+ signal in response to 15 sec S+U” value in the data set with rhesus coronary VMC (72 hours in RRTHC in vitro, FIG. 7B, p<0.05) was “exaggerated hyperreactive state beyond control”. The “Effect on protection by 72 hour 300 pM 3βAdiol (Ca2+ signal after S+U)” value in the data set with rhesus coronary VMC (RRTHC 30 μM, 3 hours prior to and during 3βAdiol, FIG. 7A, p<0.05) is “blocked”.
Regarding `N#CC(Cc1ccc(O)cc1)c1ccc(O)cc1` (stereo not drawn) [DPN, diarylpropionitrile], in the data set on rhesus coronary VMC (1 nM), the “Ca2+ response to S+U (protected state vs control)” value is on record as “produced a protected state”.
Regarding `C[C@]12CC[C@H](O)C[C@@H]1CC[C@@H]1[C@@H]2CC[C@]2(C)[C@@H](O)CC[C@@H]12` [3βAdiol, 5α-androstan-3β,17β-diol], the “Estrogen beta receptor agonist activity (increase in polarization)” value in data set [1] was “beta receptor activity similar to that of estriol and estradiol”. Also, the “Protection relative to genistein and DPN” value with rhesus coronary VMC (300 pM 3βAdiol vs 10 nM genistein and 1 nM DPN, FIG. 6) is given as “superior”. In addition, in the data set with rhesus coronary VMC (300 pM), the “Ca2+ response to S+U (protected state vs control)” value is “produced a protected state”. Also, in the data set with rhesus coronary VMC (72 hours treatment at 300 pM), the “Ca2+ signal … (protection)” value is “protection with estriol was found to be weaker than the estrogen beta receptor selective agonists 3βAdiol and epiestriol”. For the same compound, the “Ca2+ response to S+U” value in the data set with rhesus coronary VMC (concentrations greater than 30 pM (range tested 30 pM to 3 nM), FIG. 5) is on record as “a protected state was established”.
For `C[C@]12CC[C@@H]3c4ccc(O)cc4CC[C@H]3[C@@H]1C[C@H](O)[C@@H]2O` [epiestriol], the “Estrogen beta receptor agonist activity (increase in polarization)” value in data set [1] was “beta receptor activity similar to that of estriol and estradiol”. The “Ca2+ signal … (protection)” value in the data set with rhesus coronary VMC (72 hours treatment at 1 nM) is “protection with estriol was found to be weaker than the estrogen beta receptor selective agonists 3βAdiol and epiestriol”.
